Assay results: patent US11504431B2, “Formulations for the suprachoroidal space of an eye and methods” (Emory University, priority 2016, dated 2022)

Tests used:
SCS of live rabbits [1] = assay: SCS clearance kinetics by fundus imaging
[2] = test system: SCS of rabbit eyes ex vivo; assay: Ex vivo SCS microneedle injection, flat mount of 2D circumferential spread; design: species or system New Zealand White rabbit; conditions: in HBSS with 0.2 μm red-fluorescent particles, 25-150 μL, 3 minutes post-injection, mean±SEM
Experimental: Extraocular tissues were carefully removed from the rabbit ocular globe. To simulate a physiological intraocular pressure (IOP) of 10-12 mmHg, a water column was raised to ˜14 cm and connected to the eye via a 25-gauge needle penetrated through the optic nerve. A microneedle (750 μm in length, 33-gauge; Clearside Biomedical, Alpharetta, Ga.) attached to a 250 μL glass chromatography syringe (National Scientific, Rockwood, Tenn.) was used to make injections.
Depending on the experimental condition, each injection consisted of 25 to 150 μL of 0.5% (w/v) red-fluorescent particles (0.2 μm diameter; Excitation: 580 nm; Emission: 605 nm) and 0.025% (w/v) fluorescein suspended in Hank's Balanced Salt Solution (HBSS; Gibco, Life Technologies). After each injection, the needle was held in place for 1 minute to minimize reflux. The eye was then frozen via submersion in 100% ethanol chilled over dry ice 3 minutes post-injection depending on experimental condition.
After SCS injection and freezing, eyes were prepared to assess the 2D spread of particles and fluorescein. […]
A digital SLR camera (Canon 60D, Canon, Melville, N.Y.) with a 100 mm lens (Canon) was used to acquire brightfield and fluorescence images. […] The area of green and red fluorescence that was above threshold was calculated for each eye using ImageJ (National Institutes of Health, Bethesda, Md.). […]

SCS of live rabbits [3] = assay: Collection of fluorescein by different clearance routes after SCS injection; assay type: in vivo, New Zealand White rabbit; conditions: one hour post-injection
Experimental: To assess contributions of different routes of clearance, fluorescein from multiple collection sites was collected after SCS injection in vivo. The fluorescein collected from these collection sites was determined over time. The amount of fluorescein leaving through the injection site was found by subtracting site [i] from site [ii] (i.e., difference in fluorescein collected from sclera anterior to the equator without and with injection site plugged). And the amount of fluorescein leaving through blood was found by subtracting site [iv] from site [iii] (i.e., difference in fluorescein collected from sclera posterior to the equator with and without the vortex vein transected). Though the physiological data are inherently noisy, they should nevertheless enable an order of magnitude characterization of the underlying processes (which can be compared to a theoretical model of transport below). The amount of fluorescein collected over time is depicted at FIG. 17.
For this terminal experiment, the rabbit (N=4 eyes per group) was anesthetized with a subcutaneous injection of ketamine/xylazine before microneedle injection; additional injections were given every 30 minutes to maintain anesthesia. Subcutaneous injection of 60 mL saline was also given on the rump to counteract fluid loss. The amount of fluorescein exiting the eye was determined by collecting samples over time from [i] sclera anterior to the equator; [ii] anterior sclera with injection site plugged; [iii] sclera posterior to the equator; and [iv] posterior sclera with vortex vein transected.
Prior to microneedle injection, the supranasal conjunctiva was dissected off the sclera. […] In [i] anterior sclera and [iii] posterior sclera conditions, samples were collected for 1 hour by swabbing the space with a 1 cm×1 cm paper tissue (Kimwipe, Kimberley-Clark, Irving, Tex.). Care was taken to swab only anterior or posterior to the equator, depending on the condition. The tissue was then placed in 1 mL HBSS until analysis.
To determine the amount of fluorescein leaving [ii] the anterior sclera with injection site plugged, a similar experiment was performed. Immediately post-injection, the injection site was plugged by sealing the microneedle into sclera with cyanoacrylate glue (Loctite 4013, Düsseldorf, Germany). Other methods were the same as above.
Heparin (5 mL of 10,000 IU/mL; Hospira, Lake Forest, Ill.) was given intravenously prior to the start of the experiment to prevent coagulation. […] A transfer pipette was used to collect blood exiting the vortex vein for 1 hour. The volume of collected blood was recorded, and HBSS was added to reach a final volume of 2 mL per sample for analysis.
Immediately after the last time point, all animals were euthanized by injection of pentobarbital through the marginal ear vein. Eyes were enucleated to determine the amount of fluorescein remaining (i) within the tissue (including SCS), and (ii) in aqueous humor, vitreous humor, and lens. The Kimwipe paper tissue and ocular tissue samples were placed in HBSS at 4° C. for 2 days to allow fluorescein to diffuse out and equilibrate with the HBSS. The amount of fluorescein in all samples was measured using a multi-plate reader (Excitation: 494 nm, Emission: 521 nm, Synergy H4, BioTek, Winooski, Vt.). In a separate experiment involving incubation of Kimwipes in a known amount of fluorescein, we found no evidence of loss in extracting fluorescein from the Kimwipe, and no leaching of fluorescent species out of the Kimwipe.

rabbit SCS in vivo [4] = assay: In vivo SCS injection, RetCam fluorescence fundus imaging of area coverage and co-localization; design: species or system New Zealand White rabbit
From the text: Also investigated was the role of formulation and time on particle distribution in the SCS. The distribution of red-fluorescent particles suspended with green fluorescently-tagged formulation excipients in HBSS after injection into the SCS of live rabbits was imaged using red and green fluorescence simultaneously. Fluorescence was imaged using RetCam imaging, which was preferred to other non-contact fundus imaging methods, since it enabled visualization of the posterior pole as well as the far periphery (i.e., the injection site). The percentage of the SCS area in the composite images that had red/green fluorescence values at least 0.1% of the starting concentration was then calculated, and this calculation was used as a proxy of true coverage; and determined the incidence of co-localization of the red and green fluorescence greater than chance. […]
At predetermined time points, the animals were imaged with a modified RetCam II system (Clarity Medical Systems, Pleasanton, Calif.). […] The built-in fluorescein attachment was used to capture green fluorescence. For the red fluorescence, green light was generated by placing a 575±50 nm bandpass filter (Edmunds Optics) in line with the fiber optic line. A red-emission filter (610±10 nm, Omega Optical, Brattleboro, Vt.) was placed over the camera to capture red fluorescence. […]

SCS of live rabbits [5] = conditions: New Zealand White, rabbit, in vivo, 3 min
rabbit SCS in vivo [6] = assay: Clearance of fluorescein from the SCS by fundus microscopy, effect of liquid formulation; design: species or system New Zealand White rabbit
Experimental: After injection of a formulation into the SCS of an anesthetized rabbit, U/S B-scan was used to determine SCS thickness at multiple locations over time, from which the rate of SCS collapse was calculated, as shown at FIG. 9. In companion experiments, the approximate clearance rate of injected fluorescent material from the SCS was found by taking fluorescence fundus images in the rabbit eye in vivo over time until fluorescence was no longer visible.
Also investigated was the effect of liquid formulation viscosity on the timescale of clearance of fluorescein from the SCS. Using fundus microscopy, the time it took for there to be no visual evidence of fluorescein in the SCS was identified. […] This was likely due to the long-lived presence of viscous CMC gel in the SCS (as evidenced by the SCS remaining open for many days), which can slow diffusion of fluorescein out of the SCS.

[7] = value assumed or taken from literature; cited from earlier work

| Compound | clearance time constant (τclearance) (SCS of live rabbits [1]; exponential decay fit of fundus fluorescence) [h] | total clearance time from SCS (SCS of live rabbits [1]; fluorescence no longer visible) [h] | ratio of area covered by fluorescein versus particles [2] | fluorescein exited via perivascular drainage around the vortex vein (SCS of live rabbits [3]) [%] | fluorescein exited via the injection site (SCS of live rabbits [3]) [%] | fluorescein found in blood (SCS of live rabbits [3]) [%] | fluorescein passed transsclerally to the subconjunctival space (anterior and posterior combined) (SCS of live rabbits [3]) [%] | fluorescein still within tissue (sclera, choroid, SCS, etc.), of total injected (SCS of live rabbits [3]) [%] | fluorescein unaccounted for (SCS of live rabbits [3]) | peak area coverage of the fluorescent species (of visible SCS area) (rabbit SCS in vivo [4]; 50 μL SCS injection in HBSS) [%] | total clearance of the fluorescently-tagged formulation excipient from the SCS (rabbit SCS in vivo [4]; HBSS = fluorescein in HBSS) [days] | area of the visible SCS occupied (SCS of live rabbits [5]) [%] | total clearance of fluorescein from the SCS (rabbit SCS in vivo [6]; injected in 5% CMC solution) [days] | total clearance of fluorescein from the SCS (rabbit SCS in vivo [6]; injected in HBSS) [days] | diffusivity [7] |
| --- | --- | --- | --- | --- | --- | --- | --- | --- | --- | --- | --- | --- | --- | --- | --- |
| O=C1OC2(c3ccc(O)cc3Oc3cc(O)ccc32)c2ccccc21 [fluorescein] | 4.3 ± 0.4 | ≤ 24 | 2.05±0.24 | 2.5±0.3 | 1.3±4 | 6.3±4 | 15±0.3 | 46±18 | About 28% | 66 | ≤ 2 | 56±6 | 2.7 ± 0.7 | 0.33 ± 0.05 | – |
| C=C(CC)C(=O)c1ccc(OCC(=O)O)c(Cl)c1Cl [ethacrynic acid] | – | – | – | – | – | – | – | – | – | – | – | – | – | – | 5×10^−6 cm^2/s |
